# Laboratory results published in publication PMC4206749 (Toxicological Research, 2014).
# Assays:
# Assay in all cases: Bacterial reverse mutation assay
# Type in all cases: cell-based
# [1] = tested on: Salmonella typhimurium strain TA100
# [2] = tested on: Salmonella typhimurium strain TA1535
# [3] = tested on: Escherichia coli strain (WP2 uvrA); settings: E. coli
# [4] = tested on: Salmonella typhimurium strain TA98
# [5] = tested on: Salmonella typhimurium strain TA1537; settings: TA1537, with S9 activation
structure (smiles),measurement,setting,value
"Oc1ccc(-c2ccc3cc(O)ccc3c2)c(O)c1 [HS-1793, 4-(6-hydroxy-2-naphthyl)-1,3-benzenediol]",Number of reverse mutants/plate (Mean ± SD),"[1]; TA100, with S9 activation, 78.1 μg/plate",116 ± 13 reverse mutants/plate
same,Number of reverse mutants/plate (Mean ± SD),"[1]; TA100, with S9 activation, 156.3 μg/plate",109 ± 8 reverse mutants/plate
same,Number of reverse mutants/plate (Mean ± SD),"[1]; TA100, with S9 activation, 312.5 μg/plate",114 ± 4 reverse mutants/plate
same,Number of reverse mutants/plate (Mean ± SD),"[1]; TA100, with S9 activation, 625 μg/plate",106 ± 19 reverse mutants/plate
same,Number of reverse mutants/plate (Mean ± SD),"[1]; TA100, with S9 activation, 1,250 μg/plate",108 ± 14 reverse mutants/plate
same,Number of reverse mutants/plate (Mean ± SD),"[1]; TA100, with S9 activation, 2,500 μg/plate",118 ± 11 reverse mutants/plate
same,Number of reverse mutants/plate (Mean ± SD),"[1]; TA100, with S9 activation, 5,000 μg/plate",106 ± 9 reverse mutants/plate
same,Number of reverse mutants/plate (Mean ± SD),"[1]; TA100, without S9 activation, 78.1 μg/plate",121 ± 8 reverse mutants/plate
same,Number of reverse mutants/plate (Mean ± SD),"[1]; TA100, without S9 activation, 156.3 μg/plate",117 ± 11 reverse mutants/plate
same,Number of reverse mutants/plate (Mean ± SD),"[1]; TA100, without S9 activation, 312.5 μg/plate",116 ± 9 reverse mutants/plate
same,Number of reverse mutants/plate (Mean ± SD),"[1]; TA100, without S9 activation, 625 μg/plate",124 ± 6 reverse mutants/plate
same,Number of reverse mutants/plate (Mean ± SD),"[1]; TA100, without S9 activation, 1,250 μg/plate",107 ± 12 reverse mutants/plate
same,Number of reverse mutants/plate (Mean ± SD),"[1]; TA100, without S9 activation, 2,500 μg/plate",108 ± 6 reverse mutants/plate
same,Number of reverse mutants/plate (Mean ± SD),"[1]; TA100, without S9 activation, 5,000 μg/plate",119 ± 12 reverse mutants/plate
same,Number of reverse mutants/plate (Mean ± SD),"[2]; TA1535, with S9 activation, 78.1 μg/plate",24 ± 3 reverse mutants/plate
same,Number of reverse mutants/plate (Mean ± SD),"[2]; TA1535, with S9 activation, 156.3 μg/plate",22 ± 3 reverse mutants/plate
same,Number of reverse mutants/plate (Mean ± SD),"[2]; TA1535, with S9 activation, 312.5 μg/plate",23 ± 4 reverse mutants/plate
same,Number of reverse mutants/plate (Mean ± SD),"[2]; TA1535, with S9 activation, 625 μg/plate",21 ± 4 reverse mutants/plate
same,Number of reverse mutants/plate (Mean ± SD),"[2]; TA1535, with S9 activation, 1,250 μg/plate",21 ± 3 reverse mutants/plate
same,Number of reverse mutants/plate (Mean ± SD),"[2]; TA1535, with S9 activation, 2,500 μg/plate",20 ± 2 reverse mutants/plate
same,Number of reverse mutants/plate (Mean ± SD),"[2]; TA1535, with S9 activation, 5,000 μg/plate",21 ± 6 reverse mutants/plate
same,Number of reverse mutants/plate (Mean ± SD),"[2]; TA1535, without S9 activation, 78.1 μg/plate",15 ± 2 reverse mutants/plate
same,Number of reverse mutants/plate (Mean ± SD),"[2]; TA1535, without S9 activation, 156.3 μg/plate",17 ± 2 reverse mutants/plate
same,Number of reverse mutants/plate (Mean ± SD),"[2]; TA1535, without S9 activation, 312.5 μg/plate",18 ± 2 reverse mutants/plate
same,Number of reverse mutants/plate (Mean ± SD),"[2]; TA1535, without S9 activation, 625 μg/plate",17 ± 5 reverse mutants/plate
same,Number of reverse mutants/plate (Mean ± SD),"[2]; TA1535, without S9 activation, 1,250 μg/plate",17 ± 2 reverse mutants/plate
same,Number of reverse mutants/plate (Mean ± SD),"[2]; TA1535, without S9 activation, 2,500 μg/plate",18 ± 4 reverse mutants/plate
same,Number of reverse mutants/plate (Mean ± SD),"[2]; TA1535, without S9 activation, 5,000 μg/plate",17 ± 3 reverse mutants/plate
same,Number of reverse mutants/plate (Mean ± SD),"[3]; with S9 activation, 78.1 μg/plate",39 ± 3 reverse mutants/plate
same,Number of reverse mutants/plate (Mean ± SD),"[3]; with S9 activation, 156.3 μg/plate",40 ± 2 reverse mutants/plate
same,Number of reverse mutants/plate (Mean ± SD),"[3]; with S9 activation, 312.5 μg/plate",42 ± 3 reverse mutants/plate
same,Number of reverse mutants/plate (Mean ± SD),"[3]; with S9 activation, 625 μg/plate",38 ± 3 reverse mutants/plate
same,Number of reverse mutants/plate (Mean ± SD),"[3]; with S9 activation, 1,250 μg/plate",37 ± 2 reverse mutants/plate
same,Number of reverse mutants/plate (Mean ± SD),"[3]; with S9 activation, 2,500 μg/plate",43 ± 3 reverse mutants/plate
same,Number of reverse mutants/plate (Mean ± SD),"[3]; with S9 activation, 5,000 μg/plate",40 ± 2 reverse mutants/plate
same,Number of reverse mutants/plate (Mean ± SD),"[3]; without S9 activation, 78.1 μg/plate",39 ± 3 reverse mutants/plate
same,Number of reverse mutants/plate (Mean ± SD),"[3]; without S9 activation, 156.3 μg/plate",33 ± 3 reverse mutants/plate
same,Number of reverse mutants/plate (Mean ± SD),"[3]; without S9 activation, 312.5 μg/plate",37 ± 2 reverse mutants/plate
same,Number of reverse mutants/plate (Mean ± SD),"[3]; without S9 activation, 625 μg/plate",36 ± 2 reverse mutants/plate
same,Number of reverse mutants/plate (Mean ± SD),"[3]; without S9 activation, 1,250 μg/plate",36 ± 3 reverse mutants/plate
same,Number of reverse mutants/plate (Mean ± SD),"[3]; without S9 activation, 2,500 μg/plate",32 ± 1 reverse mutants/plate
same,Number of reverse mutants/plate (Mean ± SD),"[3]; without S9 activation, 5,000 μg/plate",36 ± 2 reverse mutants/plate
same,Number of reverse mutants/plate (Mean ± SD),"[4]; TA98, with S9 activation, 78.1 μg/plate",40 ± 4 reverse mutants/plate
same,Number of reverse mutants/plate (Mean ± SD),"[4]; TA98, with S9 activation, 312.5 μg/plate",43 ± 8 reverse mutants/plate
same,Number of reverse mutants/plate (Mean ± SD),"[4]; TA98, with S9 activation, 625 μg/plate",42 ± 4 reverse mutants/plate
same,Number of reverse mutants/plate (Mean ± SD),"[4]; TA98, with S9 activation, 1,250 μg/plate",43 ± 4 reverse mutants/plate
same,Number of reverse mutants/plate (Mean ± SD),"[4]; TA98, with S9 activation, 2,500 μg/plate",44 ± 4 reverse mutants/plate
same,Number of reverse mutants/plate (Mean ± SD),"[4]; TA98, with S9 activation, 5,000 μg/plate",33 ± 2 reverse mutants/plate
same,Number of reverse mutants/plate (Mean ± SD),"[4]; TA98, without S9 activation, 78.1 μg/plate",29 ± 2 reverse mutants/plate
same,Number of reverse mutants/plate (Mean ± SD),"[4]; TA98, without S9 activation, 156.3 μg/plate",27 ± 2 reverse mutants/plate
same,Number of reverse mutants/plate (Mean ± SD),"[4]; TA98, without S9 activation, 312.5 μg/plate",30 ± 4 reverse mutants/plate
same,Number of reverse mutants/plate (Mean ± SD),"[4]; TA98, without S9 activation, 625 μg/plate",26 ± 3 reverse mutants/plate
same,Number of reverse mutants/plate (Mean ± SD),"[4]; TA98, without S9 activation, 1,250 μg/plate",25 ± 2 reverse mutants/plate
same,Number of reverse mutants/plate (Mean ± SD),"[4]; TA98, without S9 activation, 2,500 μg/plate",28 ± 1 reverse mutants/plate
same,Number of reverse mutants/plate (Mean ± SD),"[4]; TA98, without S9 activation, 5,000 μg/plate",27 ± 3 reverse mutants/plate
same,Number of reverse mutants/plate (Mean ± SD),[5]; 78.1 μg/plate,16 ± 2 reverse mutants/plate
same,Number of reverse mutants/plate (Mean ± SD),[5]; 156.3 μg/plate,14 ± 2 reverse mutants/plate
same,Number of reverse mutants/plate (Mean ± SD),[5]; 312.5 μg/plate,15 ± 5 reverse mutants/plate
